Measured values published in the supplement of paper PMC10307832.

Experiments:
Assay in all cases: relative viability (nuclei count vs DMSO), 5 days (fraction); higher = more cells survive
AT9283 + Dasatinib = compound: O=C(Nc1c[nH]nc1-c1nc2ccc(CN3CCOCC3)cc2[nH]1)NC1CC1 [AT9283] + Cc1nc(Nc2ncc(C(=O)Nc3c(C)cccc3Cl)s2)cc(N2CCN(CCO)CC2)n1 [Dasatinib] (partner 0.075 µM)
Procedure, shortened: (§1)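 After 5 days of treatment, lung cancer cells in 1536-well plates were fixed and stained in a single step (final 0.05% Triton X-100, 1% formaldehyde, 1 ug/ml Hoechst) and their nuclei counted on 4× images. Treatment had been applied by pin tool the day after seeding as one drug alone or as a fixed anchor-drug dose with five library-drug doses (not always all listed) in √10 steps. Relative viability is the nuclei count of treated wells divided by that of vehicle wells, and values are medians of duplicate plates.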

AT9283 + Luminespib = compound: O=C(Nc1c[nH]nc1-c1nc2ccc(CN3CCOCC3)cc2[nH]1)NC1CC1 [AT9283] + CCNC(=O)c1noc(-c2cc(C(C)C)c(O)cc2O)c1-c1ccc(CN2CCOCC2)cc1 [Luminespib] (partner 0.01 µM)
Procedure, shortened: as §1

AT9283 + Foretinib = compound: O=C(Nc1c[nH]nc1-c1nc2ccc(CN3CCOCC3)cc2[nH]1)NC1CC1 [AT9283] + COc1cc2c(Oc3ccc(NC(=O)C4(C(=O)Nc5ccc(F)cc5)CC4)cc3F)ccnc2cc1OCCCN1CCOCC1 [Foretinib] (partner 0.25 µM)
Procedure, shortened: as §1

Erlotinib + Bortezomib = compound: C#Cc1cccc(Nc2ncnc3cc(OCCOC)c(OCCOC)cc23)c1 [Erlotinib] + CC(C)C[C@H](NC(=O)[C@H](Cc1ccccc1)NC(=O)c1cnccn1)B(O)O [Bortezomib] (partner 0.002 µM)
Procedure, shortened: as §1

AT9283 + Bortezomib = compound: O=C(Nc1c[nH]nc1-c1nc2ccc(CN3CCOCC3)cc2[nH]1)NC1CC1 [AT9283] + CC(C)C[C@H](NC(=O)[C@H](Cc1ccccc1)NC(=O)c1cnccn1)B(O)O [Bortezomib] (partner 0.002 µM)
Procedure, shortened: as §1

Row | Cell Line | relative viability (AT9283 + Dasatinib; first compound 0.003 µM) | relative viability (AT9283 + Dasatinib; first compound 0.03 µM) | relative viability (AT9283 + Dasatinib; first compound 0.09487 µM) | relative viability (AT9283 + Dasatinib; first compound 0.3 µM) | relative viability (AT9283 + Luminespib; first compound 0.003 µM) | relative viability (AT9283 + Luminespib; first compound 0.03 µM) | relative viability (AT9283 + Luminespib; first compound 0.09487 µM) | relative viability (AT9283 + Luminespib; first compound 0.3 µM) | relative viability (AT9283 + Foretinib; first compound 0.003 µM) | relative viability (AT9283 + Foretinib; first compound 0.03 µM) | relative viability (AT9283 + Foretinib; first compound 0.09487 µM) | relative viability (AT9283 + Foretinib; first compound 0.3 µM) | relative viability (Erlotinib + Bortezomib; first compound 0.02 µM) | relative viability (Erlotinib + Bortezomib; first compound 0.2 µM) | relative viability (Erlotinib + Bortezomib; first compound 0.6325 µM) | relative viability (Erlotinib + Bortezomib; first compound 2 µM) | relative viability (AT9283 + Bortezomib; first compound 0.003 µM) | relative viability (AT9283 + Bortezomib; first compound 0.03 µM) | relative viability (AT9283 + Bortezomib; first compound 0.09487 µM) | relative viability (AT9283 + Bortezomib; first compound 0.3 µM)
1 | NCI-H2347 | 0.342 | 0.313 | 0.26 | 0.223 | 0.364 | 0.543 | 0.43 | 0.231 | 0.844 | 0.869 | 0.672 | 0.446 | 0.759 | 0.873 | 1.26 | 0.659 | 0.933 | 1.01 | 1 | 0.539
2 | NCI-H2405 | 0.177 | 0.185 | 0.132 | 0.107 | 0.662 | 0.625 | 0.352 | 0.331 | 1.05 | 0.82 | 0.352 | 0.312 | 1.12 | 1.03 | 0.998 | 0.938 | 0.875 | 0.967 | 0.721 | 0.33
3 | NCI-H3122 | 0.763 | 0.664 | 0.111 | 0.0513 | 0.122 | 0.0841 | 0.051 | 0.0606 | 0.803 | 0.852 | 0.284 | 0.0779 | 1.01 | 1.03 | 1.05 | 1.05 | 1.04 | 1.02 | 0.548 | 0.37
4 | PC-3 [JPC-3] | 1.06 | 1.02 | 0.876 | 0.718 | 0.739 | 0.744 | 0.473 | 0.404 | 1 | 0.974 | 0.591 | 0.543 | 0.796 | 0.455 | 0.401 | 0.324 | 0.822 | 0.86 | 0.867 | 0.687
5 | PC-14 | 0.221 | 0.146 | 0.0272 | 0.016 | 0.156 | 0.15 | 0.121 | 0.0746 | 0.956 | 0.796 | 0.581 | 0.16 | 0.67 | 0.259 | 0.21 | 0.249 | 0.944 | 0.704 | 0.179 | 0.116
6 | RERF-LC-KJ | 0.864 | 0.391 | 0.212 | 0.188 | 1.24 | 0.792 | 0.362 | 0.28 | 0.922 | 0.498 | 0.279 | 0.22 | 1.04 | 1.01 | 0.854 | 0.762 | 1.02 | 0.793 | 0.526 | 0.296
7 | SK-LU-1 | 0.217 | 0.124 | 0.0747 | 0.0888 | 0.203 | 0.203 | 0.209 | 0.157 | 0.925 | 0.385 | 0.214 | 0.27 | 1.07 | 1.55 | 1.61 | 0.984 | 1.21 | 1.02 | 0.646 | 0.279
8 | SW 1573 | 0.496 | 0.115 | 0.0919 | 0.0873 | 0.199 | 0.148 | 0.142 | 0.169 | 0.621 | 0.423 | 0.239 | 0.233 | 1.08 | 1.02 | 0.934 | 0.879 | 1.04 | 0.304 | 0.279 | 0.236
9 | UMC-11 | 0.453 | 0.128 | 0.139 | 0.154 | 1.05 | 0.161 | 0.16 | 0.165 | 0.996 | 0.181 | 0.175 | 0.184 | 0.934 | 0.837 | 0.738 | 0.586 | 0.465 | 0.108 | 0.0924 | 0.129
